From patent US12410184B2, “Crystalline forms of a menin inhibitor” (Kura Oncology, Inc., priority 2023, dated 2025)

What was measured:
[1] = Compound 1, Form 1 and Form 5 interconversion study (slurry in saturated solutions, XRPD); format: physicochemical; settings: conclusion from Table 5 interconversion study
Description: Saturated solutions of Compound 1, Form 1, in EtOH, MTBE, and isopropyl acetate at 50° C. were prepared. About 6 mg of Compound 1, Form 1, and Compound 1, Form 5, were weighed into each saturated solutions, and the resulting suspensions were slurried for 2 days at corresponding temperature. The resulting solids were sampled for XRPD analysis.

[2] = Solid form stability under humidity or vacuum/heat; format: physicochemical
Description: Treatment of Form 5 at 40° C., 75% relative humidity for 6 days provided mainly Form 4.
Treatment of Form 4 at 50° C. under vacuum and inert atmosphere for 5 days provided mainly Form 4.

## CNc1nc(NC2CCN(Cc3ccc4c(cc(C#N)n4C[C@H](C)N4CCN(S(C)(=O)=O)CC4)c3C)CC2)c2cc(CC(F)(F)F)sc2n1 [Compound 1, Form 1, (S)-4-methyl-5-((4-((2-(methylamino)-6-(2,2,2-trifluoroethyl)thieno[2,3-d]pyrimidin-4-yl)amino)piperidin-1-yl)methyl)-1-(2-(4-(methylsulfonyl)piperazin-1-yl)propyl)-1H-indole-2-carbonitrile]
[1]
  Thermodynamic stability of crystalline form: thermodynamically stable crystalline form

## CNc1nc(NC2CCN(Cc3ccc4c(cc(C#N)n4C[C@H](C)N4CCN(S(C)(=O)=O)CC4)c3C)CC2)c2cc(CC(F)(F)F)sc2n1 [Compound 1, Form 4, (S)-4-methyl-5-((4-((2-(methylamino)-6-(2,2,2-trifluoroethyl)thieno[2,3-d]pyrimidin-4-yl)amino)piperidin-1-yl)methyl)-1-(2-(4-(methylsulfonyl)piperazin-1-yl)propyl)-1H-indole-2-carbonitrile]
[2]; 50° C. under vacuum and inert atmosphere, 5 days
  Solid form after treatment: mainly Form 4

## CNc1nc(NC2CCN(Cc3ccc4c(cc(C#N)n4C[C@H](C)N4CCN(S(C)(=O)=O)CC4)c3C)CC2)c2cc(CC(F)(F)F)sc2n1 [Compound 1, Form 5, (S)-4-methyl-5-((4-((2-(methylamino)-6-(2,2,2-trifluoroethyl)thieno[2,3-d]pyrimidin-4-yl)amino)piperidin-1-yl)methyl)-1-(2-(4-(methylsulfonyl)piperazin-1-yl)propyl)-1H-indole-2-carbonitrile]
[2]; 40° C., 75% relative humidity, 6 days
  Solid form after treatment: mainly Form 4
